Measurements: patent US20090018111A1, “Novel Antimicrobial Medicament” (priority 2004, published 2009)
Read-outs that look alike come from different tables or passages of the source.

Tests used:
Assay in all cases: Sensitivity test (agar dilution), clinical isolate
[1] = tested on: P. aeruginosa 13285; format: cell-based, Pseudomonas aeruginosa
Description: (§1) In addition, the antibacterial activities were tested against strains which are comparatively less sensitive to β-lactam compounds, namely clinically isolated 13 strains of Acinetobacter calcoaceticus and Acinetobacter lwoffi, clinically isolated 11 strains of Serratia marcescens, clinically isolated 12 strains of Burkholderia cepacia, and clinically isolated 15 strains of Pseudomonas aeruginosa.
(§2) According to the standard method of Japan Chemotherapeutic Society (Chemotherapy, vol. […], p 76-79 (1981)) the test was carried out using the agar dilution method. After dissolving test samples in distilled water, agar medium containing the test samples was prepared in such a manner that the final concentration became twice serial dilution by pouring serially diluted combination drug solution or a single drug solution into agar medium. As agar medium was used Mueller Hinton Agar medium (MHA). Then, each strain was cultivated over night at 37° C. in an incubator and suspended in buffered saline solution with gelatin (BSG) in the concentration of about 10^6 CFU/ml. The suspension (about 5 μl) containing test strains was inoculated to the medium containing the test samples by Micro Planter.
(§3) Each drug was weighed, and dissolved in distilled water to give a test sample. When the drugs are used in combination, two kinds of solution containing each drug were mixed so as to be various ratio of concentration to give a mixed solution. When the sample is subjected to sensitivity test, this mixed solution was diluted by twice serial dilution method.
(§4) Furthermore, when the drug is solely used, each test sample was used as it is, and diluted by twice serial dilution method from the maximum concentration to the minimum concentration.

[2] = tested on: P. aeruginosa 13269; format: cell-based, Pseudomonas aeruginosa
Description: as §1, §2, §3, §4

[3] = tested on: P. aeruginosa 15032; format: cell-based, Pseudomonas aeruginosa
Description: as §1, §2, §3, §4

[4] = tested on: P. aeruginosa 15039; format: cell-based, Pseudomonas aeruginosa
Description: as §1, §2, §3, §4

[5] = tested on: P. aeruginosa 15036; format: cell-based, Pseudomonas aeruginosa
Description: as §1, §2, §3, §4

[6] = tested on: P. aeruginosa 12789; format: cell-based, Pseudomonas aeruginosa
Description: as §1, §2, §3, §4

[7] = tested on: P. aeruginosa 13272; format: cell-based, Pseudomonas aeruginosa
Description: as §1, §2, §3, §4

[8] = tested on: P. aeruginosa 12790; format: cell-based, Pseudomonas aeruginosa; settings: read-out: MIC
Description: as §1, §2, §3, §4

[9] = tested on: P. aeruginosa 13280; format: cell-based, Pseudomonas aeruginosa
Description: as §1, §2, §3, §4

[10] = tested on: P. aeruginosa 13245; format: cell-based, Pseudomonas aeruginosa
Description: as §1, §2, §3, §4

[11] = tested on: P. aeruginosa 15040; format: cell-based, Pseudomonas aeruginosa
Description: as §1, §2, §3, §4

[12] = tested on: P. aeruginosa 13224; format: cell-based, Pseudomonas aeruginosa
Description: as §1, §2, §3, §4

[13] = tested on: Acinetobacter spp. 1195; format: cell-based, Acinetobacter calcoaceticus and Acinetobacter lwoffi; settings: read-out: MIC
Description: as §1, §2, §3, §4

[14] = tested on: Acinetobacter spp. 1398-2; format: cell-based, Acinetobacter calcoaceticus and Acinetobacter lwoffi
Description: as §1, §2, §3, §4

[15] = tested on: Acinetobacter spp. 1399-2; format: cell-based, Acinetobacter calcoaceticus and Acinetobacter lwoffi
Description: as §1, §2, §3, §4

C[C@H]1C=C(c2csc(SC3=C(C(=O)O)N4C(=O)[C@H]([C@@H](C)O)[C@H]4[C@H]3C)n2)CN1 [SM, (4R,5S,6S)-6-[(1R)-1-Hydroxyethyl]-4-methyl-3-({4-[(5S)-5-methyl-2,5-dihydro-1H-pyrrol-3-yl]-1,3-thiazol-2-yl}sulfanyl)-7-oxo-1-azabicyclo[3.2.0]hept-2-ene-2-carboxylic acid]
MIC ([1]; Pseudomonas aeruginosa, 13285, Concomitant (ME:SM = 1:1)): 4 µg/mL
MIC ([1]; Pseudomonas aeruginosa, 13285, Concomitant (ME:SM = 1:2)): 8 µg/mL
MIC ([1]; Pseudomonas aeruginosa, 13285, Concomitant (ME:SM = 1:4)): 16 µg/mL
MIC ([1]; Pseudomonas aeruginosa, 13285, Concomitant (ME:SM = 2:1)): 2 µg/mL
MIC ([1]; Pseudomonas aeruginosa, 13285, alone): 32 µg/mL
MIC ([2]; Pseudomonas aeruginosa, 13269, Concomitant (ME:SM = 1:1)): 4 µg/mL
MIC ([2]; Pseudomonas aeruginosa, 13269, Concomitant (ME:SM = 1:2)): 4 µg/mL
MIC ([2]; Pseudomonas aeruginosa, 13269, Concomitant (ME:SM = 1:4)): 8 µg/mL
MIC ([2]; Pseudomonas aeruginosa, 13269, Concomitant (ME:SM = 2:1)): 2 µg/mL
MIC ([2]; Pseudomonas aeruginosa, 13269, alone): 16 µg/mL
MIC ([3]; Pseudomonas aeruginosa, 15032, Concomitant (ME:SM = 1:1)): 2 µg/mL
MIC ([3]; Pseudomonas aeruginosa, 15032, Concomitant (ME:SM = 1:2)): 2 µg/mL
MIC ([3]; Pseudomonas aeruginosa, 15032, Concomitant (ME:SM = 1:4)): 8 µg/mL
MIC ([3]; Pseudomonas aeruginosa, 15032, Concomitant (ME:SM = 2:1)): 1 µg/mL
MIC ([3]; Pseudomonas aeruginosa, 15032, alone): 8 µg/mL
MIC ([4]; Pseudomonas aeruginosa, 15039, Concomitant (ME:SM = 1:1)): 8 µg/mL
MIC ([4]; Pseudomonas aeruginosa, 15039, Concomitant (ME:SM = 1:2)): 16 µg/mL
MIC ([4]; Pseudomonas aeruginosa, 15039, Concomitant (ME:SM = 1:4)): 16 µg/mL
MIC ([4]; Pseudomonas aeruginosa, 15039, Concomitant (ME:SM = 2:1)): 4 µg/mL
MIC ([4]; Pseudomonas aeruginosa, 15039, alone): 32 µg/mL
MIC ([5]; Pseudomonas aeruginosa, 15036, Concomitant (ME:SM = 1:1)): 2 µg/mL
MIC ([5]; Pseudomonas aeruginosa, 15036, Concomitant (ME:SM = 1:2)): 2 µg/mL
MIC ([5]; Pseudomonas aeruginosa, 15036, Concomitant (ME:SM = 1:4)): 8 µg/mL
MIC ([5]; Pseudomonas aeruginosa, 15036, Concomitant (ME:SM = 2:1)): 1 µg/mL
MIC ([5]; Pseudomonas aeruginosa, 15036, alone): 8 µg/mL
MIC ([6]; Pseudomonas aeruginosa, 12789, Concomitant (ME:SM = 1:1)): 0.5 µg/mL
MIC ([6]; Pseudomonas aeruginosa, 12789, Concomitant (ME:SM = 1:2)): 1 µg/mL
MIC ([6]; Pseudomonas aeruginosa, 12789, Concomitant (ME:SM = 1:4)): 2 µg/mL
MIC ([6]; Pseudomonas aeruginosa, 12789, Concomitant (ME:SM = 2:1)): 0.25 µg/mL
MIC ([6]; Pseudomonas aeruginosa, 12789, alone): 8 µg/mL
MIC ([7]; Pseudomonas aeruginosa, 13272, Concomitant (ME:SM = 1:1)): 4 µg/mL
MIC ([7]; Pseudomonas aeruginosa, 13272, Concomitant (ME:SM = 1:2)): 4 µg/mL
MIC ([7]; Pseudomonas aeruginosa, 13272, Concomitant (ME:SM = 1:4)): 8 µg/mL
MIC ([7]; Pseudomonas aeruginosa, 13272, Concomitant (ME:SM = 2:1)): 2 µg/mL
MIC ([7]; Pseudomonas aeruginosa, 13272, alone): 16 µg/mL
MIC ([8]; Pseudomonas aeruginosa, 12790, Concomitant (ME:SM = 1:1)): 0.063 µg/mL
MIC ([8]; Pseudomonas aeruginosa, 12790, Concomitant (ME:SM = 1:2)): 0.25 µg/mL
MIC ([8]; Pseudomonas aeruginosa, 12790, Concomitant (ME:SM = 1:4)): 0.25 µg/mL
MIC ([8]; Pseudomonas aeruginosa, 12790, Concomitant (ME:SM = 2:1)): 0.016 µg/mL
MIC ([8]; Pseudomonas aeruginosa, 12790, alone): 4 µg/mL
MIC ([9]; Pseudomonas aeruginosa, 13280, Concomitant (ME:SM = 1:1)): 4 µg/mL
MIC ([9]; Pseudomonas aeruginosa, 13280, Concomitant (ME:SM = 1:2)): 8 µg/mL
MIC ([9]; Pseudomonas aeruginosa, 13280, Concomitant (ME:SM = 1:4)): 16 µg/mL
MIC ([9]; Pseudomonas aeruginosa, 13280, Concomitant (ME:SM = 2:1)): 4 µg/mL
MIC ([9]; Pseudomonas aeruginosa, 13280, alone): 32 µg/mL
MIC ([10]; Pseudomonas aeruginosa, 13245, Concomitant (ME:SM = 1:1)): 2 µg/mL
MIC ([10]; Pseudomonas aeruginosa, 13245, Concomitant (ME:SM = 1:2)): 2 µg/mL
MIC ([10]; Pseudomonas aeruginosa, 13245, Concomitant (ME:SM = 1:4)): 8 µg/mL
MIC ([10]; Pseudomonas aeruginosa, 13245, Concomitant (ME:SM = 2:1)): 1 µg/mL
MIC ([10]; Pseudomonas aeruginosa, 13245, alone): 16 µg/mL
MIC ([11]; Pseudomonas aeruginosa, 15040, Concomitant (ME:SM = 1:1)): 4 µg/mL
MIC ([11]; Pseudomonas aeruginosa, 15040, Concomitant (ME:SM = 1:2)): 4 µg/mL
MIC ([11]; Pseudomonas aeruginosa, 15040, Concomitant (ME:SM = 1:4)): 8 µg/mL
MIC ([11]; Pseudomonas aeruginosa, 15040, Concomitant (ME:SM = 2:1)): 2 µg/mL
MIC ([11]; Pseudomonas aeruginosa, 15040, alone): 16 µg/mL
MIC ([12]; Pseudomonas aeruginosa, 13224, Concomitant (ME:SM = 1:1)): 4 µg/mL
MIC ([12]; Pseudomonas aeruginosa, 13224, Concomitant (ME:SM = 1:2)): 4 µg/mL
MIC ([12]; Pseudomonas aeruginosa, 13224, Concomitant (ME:SM = 1:4)): 8 µg/mL
MIC ([12]; Pseudomonas aeruginosa, 13224, Concomitant (ME:SM = 2:1)): 2 µg/mL
MIC ([12]; Pseudomonas aeruginosa, 13224, alone): 16 µg/mL
MIC ([13]; SPP.1195, Concomitant (ME:SM = 1:1)): 0.25 µg/mL
MIC ([13]; SPP.1195, Concomitant (ME:SM = 1:2)): 0.25 µg/mL
MIC ([13]; SPP.1195, Concomitant (ME:SM = 1:4)): 0.25 µg/mL
MIC ([13]; SPP.1195, Concomitant (ME:SM = 2:1)): 0.125 µg/mL
MIC ([13]; SPP.1195, alone): 0.5 µg/mL
MIC ([14]; SPP.13982, Concomitant (ME:SM = 1:1)): 2 µg/mL
MIC ([14]; SPP.13982, Concomitant (ME:SM = 1:2)): 4 µg/mL
MIC ([14]; SPP.13982, Concomitant (ME:SM = 1:4)): 4 µg/mL
MIC ([14]; SPP.13982, Concomitant (ME:SM = 2:1)): 2 µg/mL
MIC ([14]; SPP.13982, alone): 8 µg/mL
MIC ([15]; SPP.13992, Concomitant (ME:SM = 1:1)): 0.5 µg/mL
MIC ([15]; SPP.13992, Concomitant (ME:SM = 1:2)): 1 µg/mL
MIC ([15]; SPP.13992, Concomitant (ME:SM = 1:4)): 1 µg/mL
MIC ([15]; SPP.13992, Concomitant (ME:SM = 2:1)): 0.25 µg/mL
MIC ([15]; SPP.13992, alone): 2 µg/mL
